# Laboratory results as given in US20240131004A1, “FUNCTIONALIZED 1,3-BENZENE DIOLS AND THEIR METHOD OF USE FOR THE TREATMENT OF INFLAMMATION AND PAIN” (KANNALIFE SCIENCES, INC., priority 2021, published 2024).
# “Also recorded” adds a separate entry of the source.
# Legend:
# GPR55 [1] = assay: Cell body GPR55 immunoreactive area in DRG neurons, paclitaxel reversal paradigm, high content imaging; type: cell-based, rat
# Experimental: (§1) The GPR55 antibody was obtained from abcam. […] The secondary antibodies were obtained from Life Technologies.
# Responses of cell body GPR55 immunoreactive areas (μ^2) of neurons from dorsal root ganglion (DRG) cultures are shown in FIG. 2 after pretreatment with 3 μM paclitaxel for 8 hours followed by 16 hours treatment with various concentrations of KLS-13019. Reference lines are provided to depict the average cell body GPR55 area for control cultures (medium dash) and that of cultures pre-treated only with 3 μM paclitaxel (dash-dot-dash) for eight hours. […] Each value is the mean of 8 determinations. […] All assays were conducted by high content fluorescence imaging (Brenneman et al., 2018 and 2019).
# NLRP3 = assay: Neuritic NLRP3 immunoreactive spot area in hippocampal neurons, LPIA reversal paradigm; type: cell-based, rat
# From the text: Tissue was dissociated with a papain-based kit from Worthington Biochemical Corporation (Lakewood, NJ).
# To assess all antibody-based assays, immunocytochemical methods were employed. The goals for these assays included: 1) to assess the immunoreactive area of our molecular targets (IL-1β, IL-6, GPR55, NLRPA3) with their respective primary antibodies and distinctively labeled secondary antibodies; and 2) to compare the relative responses in both neuronal cell bodies and neurites. Prior to fixation, growth medium was removed and the wells were rinsed one time with 100 μL of DPBS (37° C.). This warm rinse is particularly important to maintain structural stability of neurites. After removal of the DPBS, cultures were fixed for 20 min at room temperature with 50 μL/well of 3.5% formaldehyde (Sigma-Aldrich: 252549) in warm (37° C.) DPBS that contained 5.5 μg/mL of Hoechst 33342 dye (Invitrogen: H3570) to label cell nuclei. After removal of the fixative, the cultures were rinsed twice with 100 μL of DPBS and then a permeabilization/blocking buffer containing 5% normal goat serum and 0.3% triton-X100 in DPBS was added to the cultures for 10 min. After removal of the blocking buffer, the cultures were rinsed twice with 100 μL of DPBS and then primary antibodies were added for one-hour incubation at room temperature. Neurons were identified with antiserum to type III beta tubulin (tuj 1) to measure changes in all neuronal parameters. The primary antiserum employed was rabbit anti-rat obtained from Sigma-Aldrich (T2200) and used at 1:200 dilution. The secondary was an Alexa Fluor 488-conjugated Fab fragment of goat anti-rabbit IgG obtained from Life Technologies (A11070) used at 1:600.
# [2] = test system: cultures of the central and peripheral nervous system; settings: Kinney 2016; Brenneman 2018, 2019; US 9,611,213; US 10,004,722; cited from earlier work
# hippocampal cultures = assay: Alamar Blue cellular viability in hippocampal cultures, reversal of LPIA toxicity; type: cell-based, rat
# From the text: Because the scope of the anti-inflammatory actions of the 1,3-benzene diols included the central nervous system as well, hippocampal cultures were also employed as they express both mNCX-1 and GPR55, the two targets that mediate protection and inflammation, respectively. […] Poly-L-lysine-coated plates (BD Biosciences, Franklin Lakes, NJ) were used because of the preferential adherence and survival of neurons on this matrix support.
# At the conclusion of each experiment, sister cultures to those assessed by image analysis were evaluated with either a fluorescent dye-based assays for neuronal viability (6-carboxyfluorescein diacetate, CFDA) or with viability dye Alamar Blue. The preferred dye was Alamar Blue as this assay of viability could be conducted and then the dye washed off the cultures for subsequent fixation and follow-up immunocytochemical assays. […] In addition, a portion of the reductive conversion of resazurin to the highly fluorescent resorufin in the Alamar Blue reagent is attributable to the action of mitochondrial reductases. Because of the need for enhanced sensitivity, the Alamar Blue assay was predominantly used for these studies. […]
# On every plate, wells without cells were used to provide a blank reading that was used to subtract background fluorescence. […] Fluorescence was measured at an excitation of 530 nm and an emission of 590 on a Cytofluor plate reader. […]
# interleukin-6 (IL-6) = assay: Interleukin-6 immunoreactive area in cell bodies and neurites of DRG neurons, paclitaxel reversal paradigm; type: cell-based, rat
# Experimental: as §1
# (§2) Referring to FIG. 3, responses of interleukin-6 (IL-6) immunoreactive (IR) areas (μ^2) in cell bodies (open circles) and neurites (closed circles) of rat DRG neurons from dissociated cultures are shown after pretreatment with 3 μM paclitaxel for 8 hours followed by 16 hours treatment with various concentrations of KLS -13019. Reference lines are provided to depict the average cell body IL-6 area (medium dash) and neurites IL-6 (dash-dot-dash) from control cultures. The zero-concentration data point on both curves depicts values for cultures treated only with 3 μM paclitaxel. […] To confirm, all treated cultures were continuously exposed to paclitaxel throughout the 24-hour duration of the experiment. […] Each value is the mean of 8 determinations. […] All assays were conducted by high content fluorescence imaging (Brenneman et al., 2018 and 2019).
# interleukin-1β (IL-1β) = assay: Interleukin-1β immunoreactive area in cell bodies and neurites of DRG neurons, paclitaxel reversal paradigm; type: cell-based, rat
# Experimental: as §1
# as §2, with “Responses” for “Referring to FIG. 3, responses”, “interleukin-1β (IL-1β)” for “interleukin-6 (IL-6)”, “shown in FIG. 4” for “shown”, “pre-treatment” for “pretreatment”, “KLS-13019.” for “KLS -13019.”, “IL-1β” for “IL-6”
# GPR55 [3] = assay: Neuritic GPR55 immunoreactive area in DRG cultures, 6 h co-treatment with LPIA; type: cell-based, rat
# From the text: Because of the recognized importance of sensory neurons in DRG to transmitting peripheral nociception (Krames, 2014) and the reported accumulation of paclitaxel in DRG from models of CIPN (Duggett et al., 2016), the preparation of choice for the in vitro studies to study protection and anti-inflammation was dissociated cultures from rat DRG. DRG cultures derived from embryonic day 18 rats were employed as the primary assay system to study KLS-13019-properties. In brief, DRG were obtained commercially through Brain Bits (Springfield, IL) and cultures prepared with slight modifications to methods previously described (Brenneman et al., 2019). Tissue was dissociated with a papain-based kit from Worthington Biochemical Corporation (Lakewood, NJ). The DRG cells were plated at low density (10,000 cells/well) in a 96-well format and maintained in serum-free medium consisting of Neurobasal Medium supplemented with B27, GlutaMAX (Gibco) and 25 ng/ml Nerve Growth Factor. Poly-D-lysine coated plates (BD Biosciences, Franklin Lakes, NJ) were employed for this culture system. Prior to the initiation of experiments between days 5 and 9 in vitro, a complete change of medium was performed in a working volume of 100 μL.
# To assess all antibody-based assays, immunocytochemical methods were employed. The goals for these assays included: 1) to assess the immunoreactive area of our molecular targets (IL-1β, IL-6, GPR55, NLRPA3) with their respective primary antibodies and distinctively labeled secondary antibodies; and 2) to compare the relative responses in both neuronal cell bodies and neurites. Prior to fixation, growth medium was removed and the wells were rinsed one time with 100 μL of DPBS (37° C.). This warm rinse is particularly important to maintain structural stability of neurites. After removal of the DPBS, cultures were fixed for 20 min at room temperature with 50 μL/well of 3.5% formaldehyde (Sigma-Aldrich: 252549) in warm (37° C.) DPBS that contained 5.5 μg/mL of Hoechst 33342 dye (Invitrogen: H3570) to label cell nuclei. […]
# human GPR55 = target: T1, human GPR55 (Homo sapiens, UniProt Q9Y2T6); assay: PathHunter β-arrestin assay, human GPR55 in CHO-K1 cell line; type: cell-based
# T1 construct: host or cells: CHO-K1
# T1 sequence (Q9Y2T6 whole entry): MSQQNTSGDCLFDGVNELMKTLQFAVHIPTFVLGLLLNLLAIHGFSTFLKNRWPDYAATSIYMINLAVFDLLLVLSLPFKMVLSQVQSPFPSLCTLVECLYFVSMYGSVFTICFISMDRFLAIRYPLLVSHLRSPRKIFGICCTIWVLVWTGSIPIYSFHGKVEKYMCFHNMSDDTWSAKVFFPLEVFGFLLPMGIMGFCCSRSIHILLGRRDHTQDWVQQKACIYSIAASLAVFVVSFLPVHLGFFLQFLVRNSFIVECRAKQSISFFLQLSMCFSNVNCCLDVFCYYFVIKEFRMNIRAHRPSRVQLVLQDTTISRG
# Experimental: In this assay, agonist-induced activation of GPR55 stimulates binding of β-arrestin to the Pro-link-tagged GPCR and forces complementation of two enzyme fragments, resulting in the formation of an active β-galactosidase enzyme. This interaction leads to an increase in enzyme activity that can be measured using chemiluminescent PathHunter detection reagents. For our application, the GPR55 agonist lysophosphatidylinositol (LPI) was tested from 0.1 nM to 30 μM to increase the relative luminescent signal relative to that of control. […] For the GPR55 antagonism assay, KLS-13019 concentrations ranging from 0.1 nM to 30 μM were tested in the presence of 16 μM LPI. Concentrations of KLS-13019 ranging from 0.1 nM to 30 μM were tested alone for possible effects of agonistic activity on β-arrestin.
# A PathHunter β-arrestin assay is shown in FIG. 8 that provides a measure of an antagonist mode assessment of KLS-13019 with a human GPR55 model system (Eurofins). To measure the β-arrestin response to a GPR55 agonist, various concentrations of lysophosphatidylinositol (LPI) were used as shown in the closed circles. […] Based on these findings, 16 μM LPI was incubated with various concentrations of KLS-13019 to test for antagonistic properties (closed inverted triangles). […] All assays were conducted with an N=10.
# [4] = test system: dorsal root ganglion (DRG) cultures; assay: Alamar Blue cellular viability in DRG cultures, reversal of paclitaxel toxicity; type: cell-based, rat
# Experimental: At the conclusion of each experiment, sister cultures to those assessed by image analysis were evaluated with either a fluorescent dye-based assays for neuronal viability (6-carboxyfluorescein diacetate, CFDA) or with viability dye Alamar Blue. The preferred dye was Alamar Blue as this assay of viability could be conducted and then the dye washed off the cultures for subsequent fixation and follow-up immunocytochemical assays. […] In addition, a portion of the reductive conversion of resazurin to the highly fluorescent resorufin in the Alamar Blue reagent is attributable to the action of mitochondrial reductases. Because of the need for enhanced sensitivity, the Alamar Blue assay was predominantly used for these studies. Similar results in assessing pharmacological responses were obtained with both assays (see Brenneman et al, 2019).
# On every plate, wells without cells were used to provide a blank reading that was used to subtract background fluorescence. For the Alamar Blue viability assay, 10 ul of the dye was added directly to the culture well that contained 100 ul of nutrient medium (Ivanov et al., 2016). Incubation times with the dye ranged from 1-5 hrs., depending on the experimental goals. Fluorescence was measured at an excitation of 530 nm and an emission of 590 on a Cytofluor plate reader.
# Referring to FIG. 1, cellular viability, as measured with the viability dye Alamar Blue, is shown with relative fluorescence units (RFU) in dorsal root ganglion (DRG) cultures after treatment with 3 μM paclitaxel for 8 hours followed by 16 hours treatment with various concentrations of KLS-13019. Reference lines are provided to depict the RFU levels for control cultures (medium dash) and cultures pre-treated only with 3 μM paclitaxel (dash-dot-dash) for eight hours. […] To confirm, all treated cultures were continuously exposed to paclitaxel throughout the 24-hour duration of the experiment. […] Each value is the mean of 6 determinations.
# [5] = 3 μM paclitaxel 8 h, then 16 h treatment
smiles,measurement,setting,value
"C=C(C)[C@@H]1CCC(C)=C[C@H]1c1c(O)cc(CC2CN(C(C)=O)C2)cc1O [KLS-13019, 1-(3-(3,5-dihydroxy-4-((1R,6R)-3-methyl-6-(prop-1-en-2-yl)cyclohex-2-enyl)benzyl)azetidin-1-yl)ethenone]",Reversal of paclitaxel-induced increase in cell body GPR55 area (efficacy),GPR55 [1]; [5],fully returned to the average area of control cultures
same,EC50,"GPR55 [1]; Rattus norvegicus, DRG neuron, read-out: EC50 in reversing previously established increases in GPR55 area",2310 pM
same,NLRP3 spot areas compared with control cultures (efficacy of reversal),"NLRP3; 1 nM KLS-13019, equimolar to LPIA",not different from that of control cultures
same,IC50,"NLRP3; Rattus norvegicus, Hippocampal neuron, 4 h, read-out: IC50 of decrease in neuritic NLRP3 area",129 ± 43 pM
same,Effect on oxidative stress and nerve cell damage in previous studies,[2],prevent oxidative stress and nerve cell damage
same,Protection of hippocampal cells from LPIA toxicity (efficacy),"hippocampal cultures; 1 nM LPIA 4 h, then 4 h treatment, relative to control cultures",fully protect
same,EC50,"hippocampal cultures; Rattus norvegicus, 4 h, read-out: EC50 in reversing previously established LPIA toxicity (Alamar Blue)",400 pM
same,Reversal of paclitaxel-induced increase in IL-6 IR area in cell bodies and neurites (efficacy),interleukin-6 (IL-6); [5],fully returned to the average area of control cultures
same,IC50,"interleukin-6 (IL-6); Rattus norvegicus, DRG neuron, read-out: IC50 in reversing previously established increases in IL-6 IR area",300 pM
same,Reversal of paclitaxel-induced increase in IL-1β IR area in cell bodies and neurites (efficacy),interleukin-1β (IL-1β); [5],fully restored to the average area of control cultures
same,IC50,"interleukin-1β (IL-1β); Rattus norvegicus, DRG neuron, read-out: IC50 in reversing previously established increases in IL-1β IR area",300 pM
same,IC50,"GPR55 [3]; Rattus norvegicus, 6 h, read-out: IC50 in preventing increases in GPR55 area",107 ± 19 pM
same,Effect on LPIA-induced increase in neuritic GPR55,"GPR55 [3]; co-treatment with 1 nM LPIA, 6 hours",blocked
same,"Agonist activity on β-arrestin, compound alone",human GPR55; 0.1 nM to 30 μM tested alone,no detectible agonist activity; also recorded: no detectible increases in β-arrestin signal
same,Antagonism of LPI-mediated increases in β-arrestin signal,"human GPR55; 30 μM KLS-13019 in presence of 16 μM LPI, N=10",completely blocked
same,Protection of DRG cells from paclitaxel toxicity (efficacy),"[4]; 3 μM paclitaxel 8 h pre-treatment, then 16 h treatment, relative to control cultures",fully protect
same,EC50,"[4]; Rattus norvegicus, read-out: EC50 in reversing previously established paclitaxel toxicity (Alamar Blue)",200 pM
"CC(=O)O[C@H]1C(=O)[C@@]2(C)[C@H]([C@H](OC(=O)c3ccccc3)[C@]3(O)C[C@H](OC(=O)[C@H](O)[C@@H](NC(=O)c4ccccc4)c4ccccc4)C(C)=C1C3(C)C)[C@]1(OC(C)=O)CO[C@@H]1C[C@@H]2O [paclitaxel, reference compound]",Effect of paclitaxel on cell body GPR55 immunoreactive area,"GPR55 [1]; 3 μM paclitaxel, DRG cultures",increases in GPR55 area
same,Effect of paclitaxel on IL-6 IR area in cell bodies and neurites,"interleukin-6 (IL-6); 3 μM paclitaxel, DRG neurons",increases in IL-6 (IR) area
same,Effect of paclitaxel on IL-1β IR area in cell bodies and neurites,"interleukin-1β (IL-1β); 3 μM paclitaxel, DRG neurons",increases in IL-1β (IR) area
same,Effect of paclitaxel on cellular viability of DRG cultures,[4]; 3 μM paclitaxel,toxicity
